# Source: PMC9762708 (Annals of Surgery, 2022)
# Residues, ends and D or L forms follow the SMILES beside them.
# Experiments:
# Test in all cases: MIC of phase IIb clinical isolates
# Type in all cases: cell-based
# Klebsiella pneumoniae = details: 45 strains
# Enterobacter cloacae = details: 63 strains
# [1] = system: Staphylococcus epidermidis; details: 126 strains
# Acinetobacter baumannii = details: 31 strains
# Escherichia coli = details: 22 strains
# [2] = system: Staphylococcus haemolyticus; details: 23 strains
# Pseudomonas aeruginosa = details: 74 strains
# Enterococcus faecalis = details: 25 strains
# Staphylococcus aureus = details: 320 strains
Structure (SMILES),Strains Resistant to Control Antibiotics (Klebsiella pneumoniae),Strains Resistant to Control Antibiotics (Enterobacter cloacae),Strains Resistant to Control Antibiotics [1],Strains Resistant to Control Antibiotics (Acinetobacter baumannii),Strains Resistant to Control Antibiotics (Escherichia coli),Strains Resistant to Control Antibiotics [2],Strains Resistant to Control Antibiotics (Pseudomonas aeruginosa),Strains Resistant to Control Antibiotics (Enterococcus faecalis),Strains Resistant to Control Antibiotics (Staphylococcus aureus),MIC50 [1],MIC90 [1],MIC50 (Escherichia coli),MIC90 (Escherichia coli),MIC50 [2],MIC90 [2],MIC90 (Pseudomonas aeruginosa),MIC50 (Enterococcus faecalis),MIC90 (Enterococcus faecalis)
"CO/N=C(\C(=O)N[C@@H]1C(=O)N2C(C(=O)O)=C(CSc3nc(=O)c(=O)[nH]n3C)CS[C@H]12)c1csc(N)n1 [Ceftriaxone, ceftriaxone]",18 (40.0) n (%),8 n (%),No,14 (45.2) n (%),13 (59.1) n (%),No,74 (100) n (%),25 (100) n (%),–,–,–,–,–,–,–,–,–,–
"C[C@@H](O)[C@H]1C(=O)N2C(C(=O)O)=C(SCCN=CN)C[C@H]12 [Imipenem, imipenem]",1 n (%),8 n (%),–,15 (48.4) n (%),0 n (%),–,2 n (%),–,–,–,–,–,–,–,–,–,–,–
"C[C@H]1COc2c(N3CCN(C)CC3)c(F)cc3c(=O)c(C(=O)O)cn1c23 [Levofloxacin, levofloxacin]",14 (31.1) n (%),2 n (%),41 (32.5) n (%),5 n (%),13 (59.1) n (%),14 (60.9) n (%),8 n (%),2 n (%),56 (17.5) n (%),–,–,–,–,–,–,–,–,–
"CC[C@H](C)[C@H](NC(=O)[C@H](C)NC(=O)[C@H](CCCCN)NC(=O)[C@H](CC(C)C)NC(=O)[C@H](C)NC(=O)[C@@H](NC(=O)[C@H](Cc1c[nH]cn1)NC(=O)[C@H](CC(C)C)NC(=O)[C@@H](NC(=O)[C@@H](NC(=O)[C@H](CCCCN)NC(=O)[C@H](C)NC(=O)[C@H](C)NC(=O)[C@H](CO)NC(=O)[C@H](CCCCN)NC(=O)[C@H](Cc1ccccc1)NC(=O)[C@@H](NC(=O)[C@H](CCCCN)NC(=O)[C@H](CC(C)C)NC(=O)[C@H](Cc1ccccc1)NC(=O)[C@H](CO)NC(=O)[C@H](CCCCN)NC(=O)[C@H](Cc1c[nH]c2ccccc12)NC(=O)[C@H](CCCCN)NC(C)=O)[C@@H](C)O)[C@@H](C)O)C(C)C)[C@@H](C)O)C(=O)N[C@@H](CO)C(=O)N[C@@H](CO)C(N)=O [PL-5, Peceleganan] (Ac-KWKSFLKTFKSAAKTVLHTALKAISS-NH2; N-terminus and C-terminus assumed)",–,–,–,–,–,–,–,–,–,4 µg/mL,4 µg/mL,8 µg/mL,16 µg/mL,2 µg/mL,8 µg/mL,8 µg/mL,64 µg/mL,128 µg/mL
"CN[C@H](CC(C)C)C(=O)N[C@H]1C(=O)N[C@@H](CC(N)=O)C(=O)N[C@H]2C(=O)N[C@H]3C(=O)N[C@H](C(=O)N[C@H](C(=O)O)c4cc(O)cc(O)c4-c4cc3ccc4O)[C@H](O)c3ccc(c(Cl)c3)Oc3cc2cc(c3O[C@@H]2O[C@H](CO)[C@@H](O)[C@H](O)[C@H]2O[C@H]2C[C@](C)(N)[C@H](O)[C@H](C)O2)Oc2ccc(cc2Cl)[C@H]1O [Vancomycin, vancomycin]",–,–,0 n (%),–,–,0 n (%),–,0 n (%),0 n (%),–,–,–,–,–,–,–,–,–
